Laboratory results published in patent US20170363646A1, “METHOD FOR DETECTING MOLECULES THAT INHIBIT THE INTERACTION OF CD36 PROTEIN WITH AMYLOID BETA” (Instituto de Investigaciones Cientificas y Servicios de …, priority 2015, published 2017).

Experiments:
[1] = molecular target: interaction between CD36 and fAβ1-42 (Homo sapiens, UniProt P16671); settings: cell-based assay, previously demonstrated (17); cited from earlier work
[2] = system: microglial cell line; settings: previously demonstrated (17); cited from earlier work
[3] = molecular target: T1, interaction between rCD36 and fAβ1-42 (Homo sapiens, UniProt P16671); assay: colorimetric rCD36-fAβ1-42 interaction assay on polystyrene plate; format: binding; settings: added 30 minutes prior to fAβ1-42 and maintained, p<0.05 by t-test, FIG. 7
T1 construct: the extracellular domain of the CD36 protein, corresponding to Gly30-Asn439; 6xHis (C); made in house; host or cells: Escherichia coli BL21 (DE3), pET30-CD36; purified by IMAC under denaturing conditions and renatured in PBS
From the text: The invention consists in the development of a rapid colorimetric procedure that through the adhesion of the recombinant protein CD36 to a polystyrene plate enables the evaluation of molecules that can inhibit the interaction of such protein and the amyloid beta. The process or method of this invention is based on the interaction of A) recombinant extracellular portion of the CD36 protein with B) the Aβ peptide in its fibril state. […] The presence of compounds that inhibit the ligand-receptor interaction in the reaction produces a reduction of the colorimetric signal generated after the addition of the substrate (FIG. 1). The fibrillar Aβ is prepared on the basis of the synthetic peptide incubated at 37° C., in distilled water. The fibrils are prepared by controlling the polymerization of the monomers, which is monitored through the Thioflavin T fluorescent assay (11). […]
Considering that the vast majority of the natural or synthetic compounds that will be tested in the screening phase are diluted in Dimethyl Sulfoxide (DMSO), the tolerance of the assay to this solvent was evaluated. First, the assay sensitivity was evaluated at a concentration of 0.1% DMSO in conjugated serial dilutions where concentrations of rCD36 and fAβ1-42 varied, similar to the description given in example 2 (FIG. 3). […] Later, the tolerance of the assay was evaluated at different doses of DMSO. […]

T1 sequence (P16671 30-439): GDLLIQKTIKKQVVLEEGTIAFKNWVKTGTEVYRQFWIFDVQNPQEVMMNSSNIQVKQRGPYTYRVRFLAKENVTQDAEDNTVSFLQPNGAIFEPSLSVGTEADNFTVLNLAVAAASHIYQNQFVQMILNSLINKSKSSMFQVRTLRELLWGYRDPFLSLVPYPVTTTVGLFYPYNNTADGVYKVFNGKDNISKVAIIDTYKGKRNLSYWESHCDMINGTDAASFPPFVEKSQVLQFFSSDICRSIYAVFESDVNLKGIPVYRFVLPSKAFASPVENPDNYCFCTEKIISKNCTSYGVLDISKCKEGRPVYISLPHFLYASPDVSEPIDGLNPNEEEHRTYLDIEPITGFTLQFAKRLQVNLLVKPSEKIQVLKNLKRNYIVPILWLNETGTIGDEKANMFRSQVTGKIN
Chain of interaction between CD36 and fAβ1-42 (P16671 whole entry): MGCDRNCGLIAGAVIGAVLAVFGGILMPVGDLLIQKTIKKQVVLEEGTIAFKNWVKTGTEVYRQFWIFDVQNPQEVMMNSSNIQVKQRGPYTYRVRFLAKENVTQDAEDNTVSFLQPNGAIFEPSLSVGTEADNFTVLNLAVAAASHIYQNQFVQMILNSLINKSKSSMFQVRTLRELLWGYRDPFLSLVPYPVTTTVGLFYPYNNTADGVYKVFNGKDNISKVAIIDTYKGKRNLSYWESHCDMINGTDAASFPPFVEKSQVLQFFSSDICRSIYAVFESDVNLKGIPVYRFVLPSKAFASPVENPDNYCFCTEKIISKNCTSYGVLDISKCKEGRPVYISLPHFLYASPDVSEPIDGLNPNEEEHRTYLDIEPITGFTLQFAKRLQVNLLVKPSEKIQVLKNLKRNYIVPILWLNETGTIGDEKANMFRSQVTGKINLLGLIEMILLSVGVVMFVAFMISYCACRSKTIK

C[C@H]1[C@H](C)CC[C@]2(C(=O)O)CC[C@]3(C)C(=CC[C@@H]4[C@@]5(C)CC[C@H](O)C(C)(C)[C@@H]5CC[C@]43C)[C@H]12 [ursolic acid]
inhibition of the interaction between CD36 and fAβ1-42 [1]: inhibits such interaction
effect on Aβ-induced nitric oxide production [2]: this inhibition impacts on the Aβ-induced nitric oxide production
decrease of the interaction between rCD36 and fAβ1-42 ([3]; ursolic acid 100 μM): significant decrease
decrease of the interaction between rCD36 and fAβ1-42 ([3]; ursolic acid 200 μM): significant decrease
